Key:
Type in all cases: cell-based
[1] = test system: Enterococcus faecium (EFM); assay: MIC, two-fold agar dilution (CLSI), clinical isolates
Method in brief: (§1)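 Samples are serially diluted two-fold in agar following CLSI guidance. Plates are then inoculated with the tested strains. The lowest inhibiting concentration is recorded as MIC.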

[2] = test system: methicillin-sensitive Staphylococcus aureus (MSSA); assay: as above
Method in brief: as §1

[3] = test system: Moraxella catarrhalis (BCA); assay: as above
Method in brief: as §1

[4] = test system: methicillin-resistant Staphylococcus aureus (MRSA); assay: as above
Method in brief: as §1

[5] = test system: Enterococcus faecalis (EFA); assay: as above
Method in brief: as §1

[6] = test system: Escherichia coli (including ESBLs, non-ESBLs); assay: as above
Method in brief: as §1

[7] = test system: methicillin-resistant Staphylococcus epidermidis (MRSE); assay: as above
Method in brief: as §1

[8] = test system: Streptococcus pneoumoniae (SPN); assay: as above
Method in brief: as §1

[9] = test system: methicillin-sensitive Staphylococcus epidermidis (MSSE); assay: as above
Method in brief: as §1

[10] = test system: HCT-116 colorectal cancer cell line; assay: CCK-8 proliferation inhibition; details: concentration of 30 μM, 72 hours, CCK-8
Method in brief: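 Proliferation over 72 hours of compound treatment was measured with CCK-8 against a 1‰ DMSO control.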

[11] = test system: A549 lung cancer cell line; assay: CCK-8 proliferation inhibition; details: concentration of 30 μM
Method in brief: (§2)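 Plating at 2000 cells/well, then incubation overnight at 37° C. Next, a range of compound concentrations for 72 hours (control 1‰ DMSO). Finally, medium decanted and CCK-8 diluted 1:10 added.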

[12] = test system: MGC-803 gastric cancer cell line; assay: CCK-8 proliferation inhibition; details: Homo sapiens, MGC-803, 72 h, concentration of 30 μM
Method in brief: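 Using media specific to each line (1640 for MGC-803 and Jurkat, F12 for PC3, DMEM high glucose for MCF-7, each with 10% newborn bovine serum), cells at 2000/well were treated for 72 h with serially formulated compounds, then assessed with CCK-8 diluted 1:10.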

[13] = test system: BEL-7402 liver cancer cell line; assay: CCK-8 proliferation inhibition; details: concentration of 30 μM
Method in brief: as §2

## CCCC[C@H](CC(=O)NO)C(=O)N1CC2(CC2)C[C@H]1C(=O)Nc1ccc(F)cn1 [Example 46, (S)—N-(5-fluoropyridin-2-yl)-5-((R)-2-(2-(hydroxyamino)-2-oxoethyl)hexanoyl)-5-spiro[2.4]heptane-6-carboxamide]
[1]; clinical isolate EFM 15-1
  Anti-bacterial activity (MIC), strain EFM 15-1: > 32 µg/mL
[1]; clinical isolate EFM 15-2
  Anti-bacterial activity (MIC), strain EFM 15-2: > 32 µg/mL
[1]; clinical isolate EFM 15-3
  Anti-bacterial activity (MIC), strain EFM 15-3: > 32 µg/mL
[1]; clinical isolate EFM 15-4
  Anti-bacterial activity (MIC), strain EFM 15-4: > 32 µg/mL
[1]; clinical isolate EFM 15-5
  Anti-bacterial activity (MIC), strain EFM 15-5: 0.5 µg/mL
[1]; clinical isolate EFM 15-6
  Anti-bacterial activity (MIC), strain EFM 15-6: 1 µg/mL
[2]; clinical isolate MSSA 15-3
  Anti-bacterial activity (MIC), strain MSSA 15-3: 0.25 µg/mL
[2]; clinical isolate MSSA 15-4
  Anti-bacterial activity (MIC), strain MSSA 15-4: 1 µg/mL
[2]; clinical isolate MSSA 15-5
  Anti-bacterial activity (MIC), strain MSSA 15-5: 1 µg/mL
[2]; clinical isolate MSSA 15-6
  Anti-bacterial activity (MIC), strain MSSA 15-6: > 32 µg/mL
[3]; clinical isolate BCA 14-1
  Anti-bacterial activity (MIC), strain BCA 14-1: 1 µg/mL
[3]; clinical isolate BCA 14-4
  Anti-bacterial activity (MIC), strain BCA 14-4: 1 µg/mL
[3]; clinical isolate BCA 14-5
  Anti-bacterial activity (MIC), strain BCA 14-5: 0.5 µg/mL
[3]; clinical isolate BCA 14-6
  Anti-bacterial activity (MIC), strain BCA 14-6: 0.5 µg/mL
[3]; clinical isolate BCA 14-7
  Anti-bacterial activity (MIC), strain BCA 14-7: 1 µg/mL
[3]; clinical isolate BCA 14-8
  Anti-bacterial activity (MIC), strain BCA 14-8: 1 µg/mL
[3]; clinical isolate BCA 14-10
  Anti-bacterial activity (MIC), strain BCA 14-10: 0.5 µg/mL
[4]; clinical isolate MRSA 15-1
  Anti-bacterial activity (MIC), strain MRSA 15-1: 0.25 µg/mL
[4]; clinical isolate MRSA 15-2
  Anti-bacterial activity (MIC), strain MRSA 15-2: 1 µg/mL
[4]; clinical isolate MRSA 15-3
  Anti-bacterial activity (MIC), strain MRSA 15-3: 1 µg/mL
[4]; clinical isolate MRSA 15-4
  Anti-bacterial activity (MIC), strain MRSA 15-4: 1 µg/mL
[5]; clinical isolate EFA 15-1
  Anti-bacterial activity (MIC), strain EFA 15-1: > 32 µg/mL
[5]; clinical isolate EFA 15-2
  Anti-bacterial activity (MIC), strain EFA 15-2: > 32 µg/mL
[5]; clinical isolate EFA 15-3
  Anti-bacterial activity (MIC), strain EFA 15-3: > 32 µg/mL
[5]; clinical isolate EFA 15-4
  Anti-bacterial activity (MIC), strain EFA 15-4: > 32 µg/mL
[5]; clinical isolate EFA 15-5
  Anti-bacterial activity (MIC), strain EFA 15-5: > 32 µg/mL
[5]; clinical isolate EFA 15-6
  Anti-bacterial activity (MIC), strain EFA 15-6: > 32 µg/mL
[5]; clinical isolate EFA 15-9
  Anti-bacterial activity (MIC), strain EFA 15-9: 4 µg/mL
[6]; clinical isolate ECO+ 15-1
  Anti-bacterial activity (MIC), strain ECO+ 15-1: 32 µg/mL
[6]; clinical isolate ECO+ 15-2
  Anti-bacterial activity (MIC), strain ECO+ 15-2: > 32 µg/mL
[6]; clinical isolate ECO+ 15-3
  Anti-bacterial activity (MIC), strain ECO+ 15-3: > 32 µg/mL
[6]; clinical isolate ECO+ 15-4
  Anti-bacterial activity (MIC), strain ECO+ 15-4: 1 µg/mL
[6]; clinical isolate ECO− 15-1
  Anti-bacterial activity (MIC), strain ECO− 15-1: > 32 µg/mL
[6]; clinical isolate ECO− 15-2
  Anti-bacterial activity (MIC), strain ECO− 15-2: > 32 µg/mL
[6]; clinical isolate ECO− 15-3
  Anti-bacterial activity (MIC), strain ECO− 15-3: > 32 µg/mL
[6]; clinical isolate ECO− 15-4
  Anti-bacterial activity (MIC), strain ECO− 15-4: > 32 µg/mL
[7]; clinical isolate MRSE 15-1
  Anti-bacterial activity (MIC), strain MRSE 15-1: 1 µg/mL
[7]; clinical isolate MRSE 15-2
  Anti-bacterial activity (MIC), strain MRSE 15-2: 1 µg/mL
[7]; clinical isolate MRSE 15-3
  Anti-bacterial activity (MIC), strain MRSE 15-3: 1 µg/mL
[7]; clinical isolate MRSE 15-7
  Anti-bacterial activity (MIC), strain MRSE 15-7: 1 µg/mL
[8]; clinical isolate SPN 16-2
  Anti-bacterial activity (MIC), strain SPN 16-2: 0.5 µg/mL
[8]; clinical isolate SPN 16-4
  Anti-bacterial activity (MIC), strain SPN 16-4: 0.5 µg/mL
[9]; clinical isolate MSSE 15-3
  Anti-bacterial activity (MIC), strain MSSE 15-3: 1 µg/mL
[9]; clinical isolate MSSE 15-4
  Anti-bacterial activity (MIC), strain MSSE 15-4: 1 µg/mL
[9]; clinical isolate MSSE 15-5
  Anti-bacterial activity (MIC), strain MSSE 15-5: 1 µg/mL
[9]; clinical isolate MSSE 15-6
  Anti-bacterial activity (MIC), strain MSSE 15-6: 1 µg/mL
[10]; Homo sapiens, HCT-116, 72 h, read-out: HCT116 inhibition rate/%
  inhibition at 30 µM: > 50%
[10]; 30 µM
  HCT116 inhibition rate/%: 58%
[11]; Homo sapiens, A549, 72 h
  inhibition at 30 µM: > 50%
[11]; 72 hours, 30 µM
  Inhibition of proliferation, Lung cancer A549: 60%
[12]
  inhibition at 30 µM: 48%
[13]; Homo sapiens, Bel-7402, 72 h
  inhibition at 30 µM: > 50%
[13]; 72 hours, 30 µM
  Inhibition of proliferation, Liver cancer BEL-7402: 70%

Reference: patent publication US10738028B2, “Spiro three-membered ring, spiro five-membered ring peptide deformylase inhibitor and use thereof in antibacteria and anti-tumor” (priority 2016, dated 2020)
